Here are results for 44 compounds from patent US9096565B2, “Inhibitors of histone deacetylase” (MethylGene Inc., priority 2007, dated 2015).

Bounds are passed on as bounds.

For this assay, the target named is one or more of HDAC-4, HDAC-5, HDAC-6, HDAC-7, HDAC-8, HDAC-9, HDAC-10 and HDAC-11. The experiment in a line: Inhibition of histone deacetylase enzymatic activity (summary statement over isoforms). Type of assay: biochemical. The settings on record: Table 3, selected examples; HDAC isoform not given. An outline of the steps:
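Activity was measured as deacetylation of the fluorogenic substrate Boc-Lys(trifluoroacetyl)-AMC over 20-30 min at 37 °C, after a 5 min room-temperature preincubation of enzyme with compound. Trypsin (1 mg/mL) with a reference HDAC inhibitor ended the reaction.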

In general, IC50 refers to the concentration at which inhibition is half-maximal.

As to `O=C(COc1ccccc1)Nc1cccc(C(C(=O)NO)c2ccccc2)c1` (centres unmarked) [Compound 2-68, N-hydroxy-2-(3-(2-phenoxyacetamido)phenyl)-2-phenylacetamide], the IC50 is under 1000 nM. In the case of `COc1ccc(C(=O)Nc2cccc(C(C(=O)NO)c3ccccc3)c2)cc1` (centres unmarked) [Compound 2-69, N-(3-(2-(hydroxyamino)-2-oxo-1-phenylethyl)phenyl)-4-methoxybenzamide], the IC50 was under 1000 nM.

`O=C(CCC1CCCCC1)Nc1ccc(C(C(=O)NO)c2ccccc2)cc1` (centres unmarked) [Compound 2-70, 3-cyclohexyl-N-(4-(2-(hydroxyamino)-2-oxo-1-phenylethyl)phenyl)propanamide] came in with an IC50 of under 1000 nM.

Consider `O=C(CCC1CCCCC1)Nc1cccc(C(C(=O)NO)c2ccccc2)c1` (centres unmarked) [Compound 2-71, 3-cyclohexyl-N-(3-(2-(hydroxyamino)-2-oxo-1-phenylethyl)phenyl)propanamide], for which the IC50 was under 1000 nM. Compound `O=C(Nc1ccc(C(C(=O)NO)c2ccccc2)cc1)c1cccc(Cl)c1` (centres unmarked) [Compound 2-72, 3-chloro-N-(4-(2-(hydroxyamino)-2-oxo-1-phenylethyl)phenyl)benzamide] yielded an IC50 of under 1000 nM. The value for `O=C(Nc1cccc(C(C(=O)NO)c2ccccc2)c1)c1cccc(Cl)c1` (centres unmarked) [Compound 2-73, 3-chloro-N-(3-(2-(hydroxyamino)-2-oxo-1-phenylethyl)phenyl)benzamide] was 1000 to 15000 nM.

In turn, `O=C(Nc1ccc(C(C(=O)NO)c2ccccc2)cc1)c1ccnc(Cl)c1` (centres unmarked) [Compound 2-74, 2-chloro-N-(4-(2-(hydroxyamino)-2-oxo-1-phenylethyl)phenyl)isonicotinamide] showed an IC50 of under 1000 nM.

Turning to `O=C(Nc1ccc(C(C(=O)NO)c2ccccc2)cc1)c1ccc2c(c1)OCO2` (centres unmarked) [Compound 2-75, N-(4-(2-(hydroxyamino)-2-oxo-1-phenylethyl)phenyl)benzo[d][1,3]dioxole-5-carboxamide], the IC50 was under 1000 nM. `O=C(Nc1cccc(C(C(=O)NO)c2ccccc2)c1)c1ccc2c(c1)OCO2` (centres unmarked) [Compound 2-76, N-(3-(2-(hydroxyamino)-2-oxo-1-phenylethyl)phenyl)benzo[d][1,3]dioxole-5-carboxamide] showed an IC50 of under 1000 nM. `CC(C)CCNc1ccc(C(C(=O)NO)c2ccccc2)cc1` (centres unmarked) [Compound 2-77, N-hydroxy-2-(4-(isopentylamino)phenyl)-2-phenylacetamide] gave an IC50 of under 1000 nM. As for `O=C(NO)C(c1ccccc1)c1ccc(NCc2ccccc2)cc1` (centres unmarked) [Compound 2-78, 2-(4-(benzylamino)phenyl)-N-hydroxy-2-phenylacetamide], the figure is under 1000 nM; as for `O=C(NO)C(c1ccccc1)c1cccc(NCc2ccccc2)c1` (centres unmarked) [Compound 2-79, 2-(3-(benzylamino)phenyl)-N-hydroxy-2-phenylacetamide], 1000 to 15000 nM. As for `O=C(NO)C(c1ccccc1)c1ccc(NCc2ccncc2)cc1` (centres unmarked) [Compound 2-80, N-hydroxy-2-phenyl-2-(4-(pyridin-4-ylmethylamino)phenyl)acetamide], the figure is under 1000 nM; as for `O=C(NO)C(c1ccccc1)c1cccc(NCc2ccncc2)c1` (centres unmarked) [Compound 2-81, N-hydroxy-2-phenyl-2-(3-(pyridin-4-ylmethylamino)phenyl)acetamide], under 1000 nM. As for `O=C(NO)C(c1ccccc1)c1ccc(NCC2CCCCC2)cc1` (centres unmarked) [Compound 2-82, 2-(4-(cyclohexylmethylamino)phenyl)-N-hydroxy-2-phenylacetamide], the figure is under 1000 nM; as for `O=C(NO)C(c1ccccc1)c1cccc(NCC2CCCCC2)c1` (centres unmarked) [Compound 2-83, 2-(3-(cyclohexylmethylamino)phenyl)-N-hydroxy-2-phenylacetamide], 1000 to 15000 nM; as for `COc1cccc(CNc2ccc(C(C(=O)NO)c3ccccc3)cc2)c1` (centres unmarked) [Compound 2-84, N-hydroxy-2-(4-(3-methoxybenzylamino)phenyl)-2-phenylacetamide], under 1000 nM. In turn, `COc1cccc(CNc2cccc(C(C(=O)NO)c3ccccc3)c2)c1` (centres unmarked) [Compound 2-85, N-hydroxy-2-(3-(3-methoxybenzylamino)phenyl)-2-phenylacetamide] returned an IC50 of under 1000 nM. As for `CCCS(=O)(=O)Nc1ccc(C(C(=O)NO)c2ccccc2)cc1` (centres unmarked) [Compound 2-86, N-hydroxy-2-phenyl-2-(4-(propylsulfonamido)phenyl)acetamide], the figure is under 1000 nM; as for `CCCS(=O)(=O)Nc1cccc(C(C(=O)NO)c2ccccc2)c1` (centres unmarked) [Compound 2-87, N-hydroxy-2-phenyl-2-(3-(propylsulfonamido)phenyl)acetamide], 1000 to 15000 nM.

Compound `O=C(NO)C(c1ccccc1)c1ccc(NS(=O)(=O)c2ccccc2)cc1` (centres unmarked) [Compound 2-88, N-hydroxy-2-phenyl-2-(4-(phenylsulfonamido)phenyl)acetamide] displayed an IC50 of under 1000 nM. As for `O=C(NO)C(c1ccccc1)c1cccc(NS(=O)(=O)c2ccccc2)c1` (centres unmarked) [Compound 2-89, N-hydroxy-2-phenyl-2-(3-(phenylsulfonamido)phenyl)acetamide], the figure is 1000 to 15000 nM.

As for `O=C(NO)C(c1ccccc1)c1ccc(NS(=O)(=O)c2cccs2)cc1` (centres unmarked) [Compound 2-90, N-hydroxy-2-phenyl-2-(4-(thiophene-2-sulfonamido)phenyl)acetamide], the IC50 is under 1000 nM. `COc1ccc(S(=O)(=O)Nc2cccc(C(C(=O)NO)c3ccccc3)c2)cc1` (centres unmarked) [Compound 2-91, N-hydroxy-2-(3-(4-methoxyphenylsulfonamido)phenyl)-2-phenylacetamide] registered an IC50 of 1000 to 15000 nM. The value for `O=C(NO)C(c1ccccc1)c1ccc(NS(=O)(=O)c2ccc(Cl)cc2)cc1` (centres unmarked) [Compound 2-92, 2-(4-(4-chlorophenylsulfonamido)phenyl)-N-hydroxy-2-phenylacetamide] was under 1000 nM; that for `O=C(NO)C(c1ccccc1)c1cccc(NS(=O)(=O)c2ccc(Cl)cc2)c1` (centres unmarked) [Compound 2-93, 2-(3-(4-chlorophenylsulfonamido)phenyl)-N-hydroxy-2-phenylacetamide] was 1000 to 15000 nM; that for `O=C(NO)C(c1ccccc1)c1cccc(C#Cc2ccccc2)c1` (centres unmarked) [Compound 2-94, N-hydroxy-2-phenyl-2-(3-(phenylethynyl)phenyl)acetamide] was 1000 to 15000 nM. As for `O=C(NO)C(c1ccccc1)c1cccc(C#Cc2cccnc2)c1` (centres unmarked) [Compound 2-95, N-hydroxy-2-phenyl-2-(3-(pyridin-3-ylethynyl)phenyl)acetamide], the figure is under 1000 nM. For the compound `O=C(NO)C(c1ccccc1)c1cccc(C#CCC2CCCC2)c1` (centres unmarked) [Compound 2-96, 2-(3-(3-cyclopentylprop-1-ynyl)phenyl)-N-hydroxy-2-phenylacetamide], the IC50 was under 1000 nM. The value for `O=C(NO)C(c1ccccc1)c1ccc(C#Cc2ccccc2)cc1` (centres unmarked) [Compound 2-97, N-hydroxy-2-phenyl-2-(4-(phenylethynyl)phenyl)acetamide] was under 1000 nM; that for `O=C(NO)C(c1ccccc1)c1ccc(C#CCC2CCCC2)cc1` (centres unmarked) [Compound 2-98, 2-(4-(3-cyclopentylprop-1-ynyl)phenyl)-N-hydroxy-2-phenylacetamide] was under 1000 nM. Consider `CCCCOc1ccc(C#Cc2ccc(C(C(=O)NO)c3ccccc3)cc2)cc1` (centres unmarked) [Compound 2-99, 2-(4-((4-butoxyphenyl)ethynyl)phenyl)-N-hydroxy-2-phenylacetamide], for which the IC50 is under 1000 nM. The value for `O=C(NO)C(c1ccccc1)c1cccc(-c2ccc(Oc3ccccc3)cc2)c1` (centres unmarked) [Compound 2-100, N-hydroxy-2-(4′-phenoxybiphenyl-3-yl)-2-phenylacetamide] was 1000 to 15000 nM. As for `CCCc1cccc(C(C(=O)NO)c2ccccc2)c1` (centres unmarked) [Compound 2-101, N-hydroxy-2-phenyl-2-(3-propylphenyl)acetamide], the figure is under 1000 nM; as for `CCc1ccc(-c2cccc(C(C(=O)NO)c3ccccc3)c2)cc1` (centres unmarked) [Compound 2-102, 2-(4′-ethylbiphenyl-3-yl)-N-hydroxy-2-phenylacetamide], under 1000 nM; as for `O=C(NO)C(c1ccccc1)c1cccc(-c2ccc(Cl)cc2)c1` (centres unmarked) [Compound 2-103, 2-(4′-chlorobiphenyl-3-yl)-N-hydroxy-2-phenylacetamide], under 1000 nM. For the compound `O=C(NO)C(c1ccccc1)c1cccc(-c2ccc3c(c2)CCO3)c1` (centres unmarked) [Compound 2-104, 2-(3-(2,3-dihydrobenzofuran-5-yl)phenyl)-N-hydroxy-2-phenylacetamide], the IC50 was under 1000 nM. The value for `CN(C)c1ccc(-c2cccc(C(C(=O)NO)c3ccccc3)c2)cc1` (centres unmarked) [Compound 2-105, 2-(4′-(dimethylamino)biphenyl-3-yl)-N-hydroxy-2-phenylacetamide] was under 1000 nM; that for `COc1ccc(-c2cccc(C(C(=O)NO)c3ccccc3)c2)cc1OC` (centres unmarked) [Compound 2-106, 2-(3′,4′-dimethoxybiphenyl-3-yl)-N-hydroxy-2-phenylacetamide] was under 1000 nM; that for `CCSc1ccc(-c2cccc(C(C(=O)NO)c3ccccc3)c2)cc1` (centres unmarked) [Compound 2-107, 2-(4′-(ethylthio)biphenyl-3-yl)-N-hydroxy-2-phenylacetamide] was under 1000 nM.

Take `O=C(NO)C(c1ccccc1)c1cccc(-c2ccccc2C(F)(F)F)c1` (centres unmarked) [Compound 2-108, N-hydroxy-2-phenyl-2-(2′-(trifluoromethyl)biphenyl-3-yl)acetamide]: the half-maximal inhibitory concentration (IC50) was under 1000 nM.

The compound `CN(C)C(=O)c1ccc(-c2cccc(C(C(=O)NO)c3ccccc3)c2)cc1` (centres unmarked) [Compound 2-109, 3′-(2-(hydroxyamino)-2-oxo-1-phenylethyl)-N,N-dimethylbiphenyl-4-carboxamide] displayed an IC50 of under 1000 nM. As for `CS(=O)(=O)c1ccc(-c2cccc(C(C(=O)NO)c3ccccc3)c2)cc1` (centres unmarked) [Compound 2-110, N-hydroxy-2-(4′-(methylsulfonyl)biphenyl-3-yl)-2-phenylacetamide], the figure is under 1000 nM.

As to `CCc1ccc(-c2ccc(C(C(=O)NO)c3ccccc3)cc2)cc1` (centres unmarked) [Compound 2-111, 2-(4′-ethylbiphenyl-4-yl)-N-hydroxy-2-phenylacetamide], the IC50 was under 1000 nM.
